Measurements published in publication PMC8396344, “Palmitoylation of Prolactin-Releasing Peptide Increased Affinity for and Activation of the GPR10, NPFF-R2 and NPFF-R1 Receptors: In Vitro Study” (International Journal of Molecular Sciences, 2021).
Blank lines part the entries; values can stand above or below the molecule they belong to. Non-standard residues stand in square brackets, D forms with d. Residues, ends and D or L forms follow the SMILES beside them. No end group written: not given here. NMeF = CN[C@@H](Cc1ccccc1)C(=O)O

Experiments:
[1] = target: T1, NPFF-R2 (Homo sapiens, UniProt Q9Y5X5); experiment: Cell signaling by immunoblotting, CHO-K1 cells expressing NPFF-R2; format: cell-based; conditions: dose-response 10^−11 to 10^−5 M, 5 min, 37 °C, immunoblot, at least two experiments
T1 construct: host or cells: CHO-K1 (AequoScreen, co-expressing aequorin)
T1 sequence (Q9Y5X5 whole entry): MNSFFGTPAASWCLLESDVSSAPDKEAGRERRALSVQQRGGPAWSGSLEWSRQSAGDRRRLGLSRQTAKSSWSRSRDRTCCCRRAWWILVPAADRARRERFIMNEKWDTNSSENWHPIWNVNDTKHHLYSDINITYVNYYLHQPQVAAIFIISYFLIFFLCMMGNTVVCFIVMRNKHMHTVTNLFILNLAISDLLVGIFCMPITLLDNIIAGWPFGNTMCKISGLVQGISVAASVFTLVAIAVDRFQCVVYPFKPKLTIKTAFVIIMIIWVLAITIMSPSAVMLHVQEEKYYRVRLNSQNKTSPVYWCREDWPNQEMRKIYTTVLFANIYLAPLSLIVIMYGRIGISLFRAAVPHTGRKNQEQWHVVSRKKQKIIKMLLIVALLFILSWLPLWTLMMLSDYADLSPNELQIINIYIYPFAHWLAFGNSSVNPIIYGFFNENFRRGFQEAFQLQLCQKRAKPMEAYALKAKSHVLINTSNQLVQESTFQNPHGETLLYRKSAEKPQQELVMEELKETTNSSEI
Experimental: Cells were seeded in 24-well plates at 30,000 cells/well in assay medium (growth medium without selective antibiotics) and were grown for 2 days. The day before the experiment, the medium was changed to serum-free medium. […] Cells were lysed with Laemmli sample buffer (62.5 mM Tris-HCl at pH 6.8, 2% SDS, 10% glycerol, 0.01% bromophenol blue, 5% β-mercaptoethanol, 50 mM NaF, and 1 mM Na3VO4). Samples were stored at −20 °C. Electrophoresis and immunoblotting were performed as described previously. For detection of signaling pathways, primary monoclonal antibodies (see Table 5 for the antibodies used) purchased from Cell Signaling Technology (Danvers, MA, USA) were used.
(§1) Experiments using immunoblotting were analyzed using one-way ANOVA followed by Dunnett’s post hoc test; p < 0.05 was considered statistically significant. Dose-response curves were obtained from nonlinear regression.

[2] = target: T2, GPR10 (Homo sapiens, UniProt P49683); experiment: Cell signaling by immunoblotting, CHO-K1 cells expressing GPR10; format: cell-based; conditions: dose-response 10^−11 to 10^−5 M, 5 min, 37 °C, immunoblot, at least two experiments
T2 construct: host or cells: CHO-K1
T2 sequence (P49683 1-370): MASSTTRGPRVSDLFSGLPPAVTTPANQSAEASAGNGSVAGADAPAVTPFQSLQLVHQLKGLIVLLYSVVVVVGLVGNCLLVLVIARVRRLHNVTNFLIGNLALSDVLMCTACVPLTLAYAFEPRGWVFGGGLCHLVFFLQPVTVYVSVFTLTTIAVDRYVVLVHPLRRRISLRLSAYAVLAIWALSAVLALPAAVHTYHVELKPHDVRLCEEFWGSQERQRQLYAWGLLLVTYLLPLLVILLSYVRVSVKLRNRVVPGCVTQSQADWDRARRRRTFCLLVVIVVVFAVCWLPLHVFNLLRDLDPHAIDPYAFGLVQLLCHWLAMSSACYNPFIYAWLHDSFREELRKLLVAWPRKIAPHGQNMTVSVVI
Experimental: Activation of signaling pathways was studied in the CHO-K1 cell lines containing GPR10, NPFF-R2 and NPFF-R1. Cells were seeded in 24-well plates at 30,000 cells/well in assay medium (growth medium without selective antibiotics) and were grown for 2 days. The day before the experiment, the medium was changed to serum-free medium. […] Cells were lysed with Laemmli sample buffer (62.5 mM Tris-HCl at pH 6.8, 2% SDS, 10% glycerol, 0.01% bromophenol blue, 5% β-mercaptoethanol, 50 mM NaF, and 1 mM Na3VO4). Samples were stored at −20 °C. Electrophoresis and immunoblotting were performed as described previously. For detection of signaling pathways, primary monoclonal antibodies (see Table 5 for the antibodies used) purchased from Cell Signaling Technology (Danvers, MA, USA) were used.
as §1

[3] = target: T3, GPR10 (human, UniProt P49683 1-370)
T3 sequence (looked up): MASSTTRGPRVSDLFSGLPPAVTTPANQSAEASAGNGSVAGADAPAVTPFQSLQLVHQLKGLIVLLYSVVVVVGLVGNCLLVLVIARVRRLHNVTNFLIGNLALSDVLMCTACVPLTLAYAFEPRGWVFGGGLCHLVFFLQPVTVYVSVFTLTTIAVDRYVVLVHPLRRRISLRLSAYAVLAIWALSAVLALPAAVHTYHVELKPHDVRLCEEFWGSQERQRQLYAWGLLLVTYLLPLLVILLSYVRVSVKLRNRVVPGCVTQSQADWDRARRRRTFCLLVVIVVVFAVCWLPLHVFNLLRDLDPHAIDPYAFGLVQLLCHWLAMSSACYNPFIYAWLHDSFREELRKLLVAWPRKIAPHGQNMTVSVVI

[4] = target: T1, NPFF-R2; experiment: Intracellular Ca^2+ mobilization, AequoScreen CHO-K1 cells with NPFF-R2; format: cell-based; conditions: CHO-K1 NPFF-R2 aequorin cells; peptides 10^−12 to 10^−5 M; mean ± SEM, three times in duplicates; read-out: EC50 intracellular Ca^2+ release, NPFF-R2
Experimental: The intracellular Ca^2+ level was measured using the AequoScreen stable CHO-K1 cell line containing NPFF-R2 purchased from Perkin Elmer according to the manufacturer’s protocol. Cells at 80–90% confluence cultured in media without selective antibiotics were detached (PBS pH 7.4 + 0.5 mM EDTA) and centrifuged. Cells resuspended in phenol red-free DMEM with 0.1% protease-free BSA and 5 µM coelenterazine h (Thermo Fisher Scientific Inc. Brand) were seeded at 50,000 cells/well in 96-well plates and incubated in the dark at RT with gentle agitation for 4 h. Peptides were tested at concentrations from 10^−12 to 10^−5 M. Luminescent light emission was recorded using a FlexStation 3 plate reader.
Ca^2+ release assay data are shown as the percentage of maximal response, and the results were analyzed by nonlinear regression as log agonist versus response using GraphPad software. Data are representative of at least three experiments, each performed in duplicate.

[5] = target: T2, GPR10; experiment: Competitive binding, [^125I]-PrRP31, CHO-K1 cells expressing GPR10; conditions: competition with [^125I]-PrRP31, CHO-K1 cells expressing human GPR10; mean ± SEM, 2–5 independent experiments in duplicates; Cheng-Prusoff; read-out: Ki GPR10 [^125I]-PrRP31
[6] = target: T4, NPFF-R1 (UniProt Q9GZQ6 1-430); experiment: radioligand binding; competition with [^125I]-1DMe on plasma membranes of CHO-K1 cells with NPFF-R2 or NPFF-R1, 5 µg protein/tube; 50 mM Tris-HCl pH 7.4, 60 mM NaCl, 1 mM MgCl2, 0.5% BSA; 60 min at RT; filtration; Ki by the Cheng-Prusoff equation; conditions: one partner purified
T4 construct: also called NPFF-1R; source: CHO-K1 cell line, bought: Perkin Elmer
T4 sequence (Q9GZQ6 whole entry): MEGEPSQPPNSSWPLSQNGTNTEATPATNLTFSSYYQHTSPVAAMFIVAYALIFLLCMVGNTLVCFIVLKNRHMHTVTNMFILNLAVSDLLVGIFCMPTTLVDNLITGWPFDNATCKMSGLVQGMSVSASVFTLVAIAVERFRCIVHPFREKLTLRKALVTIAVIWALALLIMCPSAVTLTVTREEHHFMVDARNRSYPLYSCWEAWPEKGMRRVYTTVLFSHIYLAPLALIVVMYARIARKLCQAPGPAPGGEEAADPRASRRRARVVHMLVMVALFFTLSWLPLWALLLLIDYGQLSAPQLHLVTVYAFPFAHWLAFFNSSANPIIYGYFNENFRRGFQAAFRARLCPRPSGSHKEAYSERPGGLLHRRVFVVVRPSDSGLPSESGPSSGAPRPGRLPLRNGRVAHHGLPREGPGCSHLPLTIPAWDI

[7] = target: T5, NPFF-R2 (UniProt Q9Y5X5 1-522); experiment: as above; conditions: one partner purified
T5 construct: also called NPFF-2R; source: CHO-K1 cell line (AequoScreen), bought: Perkin Elmer
T5 sequence (Q9Y5X5 whole entry): as the sequence (Q9Y5X5 whole entry) above

Molecule: SRAHQHSMETRTPDINPAWYTGRGIRPVGRF-NH2 [PrRP31, prolactin-releasing peptide 31, reference compound]
EC50 of ERK activation [1]: in nanomolar concentrations | EC50 of ERK activation [2]: in the nanomolar range

B1: 1DMe (peptide)
peptide: [dY]L[NMeF]QPQRF-NH2
modifications: N-terminus assumed
SMILES: CC(C)C[C@H](NC(=O)[C@H](N)Cc1ccc(O)cc1)C(=O)N(C)[C@@H](Cc1ccccc1)C(=O)N[C@@H](CCC(N)=O)C(=O)N1CCC[C@H]1C(=O)N[C@@H](CCC(N)=O)C(=O)N[C@@H](CCCNC(=N)N)C(=O)N[C@@H](Cc1ccccc1)C(N)=O
notes: numbers count on: the peptide NPFF; source: synthetic peptide, purified (HPLC, purity greater than 95%)
Ki [6]: 0.79 nM | Ki [7]: 1.03 nM

Results, then the molecule that gave them:

EC50, agonist mode, β-lactamase reporter assay [3]: 530 pM
Molecule: human prolactin-releasing peptide 31

EC50 [4]: 0.82 ± 0.15 nM | Ki [5]: > 10 µM
Molecule: CC(C)C[C@H](NC(=O)[C@H](N)Cc1ccc(O)cc1)C(=O)N(C)[C@@H](Cc1ccccc1)C(=O)N[C@@H](CCC(N)=O)C(=O)N1CCC[C@H]1C(=O)N[C@@H](CCC(N)=O)C(=O)N[C@@H](CCCN=C(N)N)C(=O)N[C@@H](Cc1ccccc1)C(N)=O [1DMe] (H-[dY]L[NMeF]QPQRF-NH2)
